# Laboratory results as given in US11076594B2, “Pyrazolone compound or salt thereof, preparation method therefor, herbicide composition and use thereof” (QINGDAO KINGAGROOT CHEMICAL COMPOUNDS CO., LTD., priority 2015, dated 2021).
# Columns and labels:
# Format in all cases: in vivo
# [1] = tested on: wheat; assay: post-emergence stage experiment, crop (Table 1); conditions: post-emergence spray at 4-5 leaf stage, 250 g/ha active ingredient with 450 kg/ha water, rated after 3 weeks in greenhouse
# Summary of the method: (§1)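 Fresh-weight reduction is recorded three weeks after a sprayer applies the acetone/Tween 80 aqueous compound solution to greenhouse-grown plants at the 4-5 leaf stage.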
# [2] = tested on: corn; assay: post-emergence stage experiment, crop (Table 1); conditions: post-emergence spray at 4-5 leaf stage, 250 g/ha active ingredient with 450 kg/ha water, rated after 3 weeks in greenhouse
# Summary of the method: as §1
# [3] = tested on: foxtail; assay: weed control effect in post-emergence stage (Table 1); design: key: Level 10: completely dead; Level 9: above 95% growth control rate; Level 8: above 90% growth control rate; Level 7: above 80% growth control rate; Level 6: above 70% growth control rate; Level 5: above 60% growth control rate; Level 4: above 50% growth control rate; Level 3: above 20% growth control rate; Level 2: 5%-20% growth control rate; Level 1: below 5% growth control rate; conditions: post-emergence spray at 4-5 leaf stage, 250 g/ha active ingredient with 450 kg/ha water, rated after 3 weeks in greenhouse
# Summary of the method: as §1
# [4] = tested on: echinochloa; assay: as above; design: key: Level 10: completely dead; Level 9: above 95% growth control rate; Level 8: above 90% growth control rate; Level 7: above 80% growth control rate; Level 6: above 70% growth control rate; Level 5: above 60% growth control rate; Level 4: above 50% growth control rate; Level 3: above 20% growth control rate; Level 2: 5%-20% growth control rate; Level 1: below 5% growth control rate; conditions: post-emergence spray at 4-5 leaf stage, 250 g/ha active ingredient with 450 kg/ha water, rated after 3 weeks in greenhouse
# Summary of the method: as §1
# [5] = tested on: bidens bipinnata; assay: as above; design: key: Level 10: completely dead; Level 9: above 95% growth control rate; Level 8: above 90% growth control rate; Level 7: above 80% growth control rate; Level 6: above 70% growth control rate; Level 5: above 60% growth control rate; Level 4: above 50% growth control rate; Level 3: above 20% growth control rate; Level 2: 5%-20% growth control rate; Level 1: below 5% growth control rate; conditions: post-emergence spray at 4-5 leaf stage, 250 g/ha active ingredient with 450 kg/ha water, rated after 3 weeks in greenhouse
# Summary of the method: as §1
# [6] = tested on: crab grass; assay: as above; design: key: Level 10: completely dead; Level 9: above 95% growth control rate; Level 8: above 90% growth control rate; Level 7: above 80% growth control rate; Level 6: above 70% growth control rate; Level 5: above 60% growth control rate; Level 4: above 50% growth control rate; Level 3: above 20% growth control rate; Level 2: 5%-20% growth control rate; Level 1: below 5% growth control rate; conditions: post-emergence spray at 4-5 leaf stage, 250 g/ha active ingredient with 450 kg/ha water, rated after 3 weeks in greenhouse
# Summary of the method: as §1
# [7] = tested on: rorippa indica; assay: as above; design: key: Level 10: completely dead; Level 9: above 95% growth control rate; Level 8: above 90% growth control rate; Level 7: above 80% growth control rate; Level 6: above 70% growth control rate; Level 5: above 60% growth control rate; Level 4: above 50% growth control rate; Level 3: above 20% growth control rate; Level 2: 5%-20% growth control rate; Level 1: below 5% growth control rate; conditions: post-emergence spray at 4-5 leaf stage, 250 g/ha active ingredient with 450 kg/ha water, rated after 3 weeks in greenhouse
# Summary of the method: as §1
# [8] = tested on: Indian mallow; assay: as above; design: key: Level 10: completely dead; Level 9: above 95% growth control rate; Level 8: above 90% growth control rate; Level 7: above 80% growth control rate; Level 6: above 70% growth control rate; Level 5: above 60% growth control rate; Level 4: above 50% growth control rate; Level 3: above 20% growth control rate; Level 2: 5%-20% growth control rate; Level 1: below 5% growth control rate; conditions: post-emergence spray at 4-5 leaf stage, 250 g/ha active ingredient with 450 kg/ha water, rated after 3 weeks in greenhouse
# Summary of the method: as §1
# [9] = tested on: wheat; assay: wheat field test, crop selectivity, greenhouse spray at 4 leaf stage; conditions: 250 g/ha of the active substance; 4 weeks after treatment
# Summary of the method: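 Seeds sown in soil-filled pots, covered 0.5-2 cm, greenhouse-grown; sprayed at 4 leaf stage (2-3 wk); acetone/methyl oleate emulsion/water formulation; 4 wk greenhouse; fresh wt control rate.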
# [10] = tested on: rice; assay: post-emergence stage experiment, crop (Table 1); design: key: Level 10: completely dead; Level 9: above 95% growth control rate; Level 8: above 90% growth control rate; Level 7: above 80% growth control rate; Level 6: above 70% growth control rate; Level 5: above 60% growth control rate; Level 4: above 50% growth control rate; Level 3: above 20% growth control rate; Level 2: 5%-20% growth control rate; Level 1: below 5% growth control rate; conditions: post-emergence spray at 4-5 leaf stage, 250 g/ha active ingredient with 450 kg/ha water, rated after 3 weeks in greenhouse
# Summary of the method: as §1
# [11] = tested on: chickweed; assay: wheat field resistant broadleaf weed control, greenhouse spray at 4 leaf stage; design: key: Level 10: completely dead; Level 9: above 95% growth control rate; Level 8: above 90% growth control rate; Level 7: above 80% growth control rate; Level 6: above 70% growth control rate; Level 5: above 60% growth control rate; Level 4: above 50% growth control rate; Level 3: above 20% growth control rate; Level 2: 5%-20% growth control rate; Level 1: below 5% growth control rate; conditions: 250 g/ha of the active substance; 4 weeks after treatment; ALS inhibitor resistant
# Summary of the method: (§2)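 After sowing in pots under 0.5-2 cm soil, plants grow to the 4 leaf stage and receive a spray of compound formulated in acetone, methyl oleate emulsion and water. Four weeks later in the greenhouse, the fresh weight control rate gives the growth control rate.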
# [12] = tested on: flixweed; assay: as above; design: key: Level 10: completely dead; Level 9: above 95% growth control rate; Level 8: above 90% growth control rate; Level 7: above 80% growth control rate; Level 6: above 70% growth control rate; Level 5: above 60% growth control rate; Level 4: above 50% growth control rate; Level 3: above 20% growth control rate; Level 2: 5%-20% growth control rate; Level 1: below 5% growth control rate; conditions: 250 g/ha of the active substance; 4 weeks after treatment; ALS inhibitor resistant
# Summary of the method: as §2
# [13] = tested on: shepherd's purse; assay: as above; design: key: Level 10: completely dead; Level 9: above 95% growth control rate; Level 8: above 90% growth control rate; Level 7: above 80% growth control rate; Level 6: above 70% growth control rate; Level 5: above 60% growth control rate; Level 4: above 50% growth control rate; Level 3: above 20% growth control rate; Level 2: 5%-20% growth control rate; Level 1: below 5% growth control rate; conditions: 250 g/ha of the active substance; 4 weeks after treatment; ALS inhibitor resistant
# Summary of the method: as §2
# [14] = tested on: corn gromwell; assay: as above; design: key: Level 10: completely dead; Level 9: above 95% growth control rate; Level 8: above 90% growth control rate; Level 7: above 80% growth control rate; Level 6: above 70% growth control rate; Level 5: above 60% growth control rate; Level 4: above 50% growth control rate; Level 3: above 20% growth control rate; Level 2: 5%-20% growth control rate; Level 1: below 5% growth control rate; conditions: 250 g/ha of the active substance; 4 weeks after treatment; ALS inhibitor resistant
# Summary of the method: as §2
SMILES,"effect on crop, Wheat (level) [1]","effect on crop, Corn (level) [2]","weed control effect, Green foxtail (level) [3]","weed control effect, Echinochloa (level) [4]","weed control effect, Bidens bipinnata (level) [5]","weed control effect, Crab grass (level) [6]","weed control effect, Rorippa indica (level) [7]","weed control effect, Indian mallow (level) [8]","Wheat (activity level, crop damage) [9]","effect on crop, Rice (level) [10]",chickweed weed controlling effect (activity level) [11],flixweed weed controlling effect (activity level) [12],shepherd's purse weed controlling effect (activity level) [13],corn gromwell weed controlling effect (activity level) [14]
CCOc1c(C(=O)Oc2c(C(=O)c3ccc(C(F)(F)F)c(N4CCCCCC4=O)c3Cl)cnn2C)cnn1C [Compound 051],0,2 (Level 2: 5%-20% growth control rate),0,6 (Level 6: above 70% growth control rate),2 (Level 2: 5%-20% growth control rate),5 (Level 5: above 60% growth control rate),10,10,0,1 (Level 1: below 5% growth control rate),10,10,10,10
Cn1cc(C(=O)Oc2c(C(=O)c3ccc(C(F)(F)F)c(N4CCCC4=O)c3Cl)c(C3CC3)nn2C)cn1 [Compound 028],0,1 (Level 1: below 5% growth control rate),1 (Level 1: below 5% growth control rate),5 (Level 5: above 60% growth control rate),7 (Level 7: above 80% growth control rate),4 (Level 4: above 50% growth control rate),10,10,0,1 (Level 1: below 5% growth control rate),10,10,10,10
Cc1nn(C)cc1C(=O)Oc1c(C(=O)c2ccc(C(F)(F)F)c(N3CCCCCC3=O)c2Cl)cnn1C [Compound 052],0,1 (Level 1: below 5% growth control rate),1 (Level 1: below 5% growth control rate),5 (Level 5: above 60% growth control rate),1 (Level 1: below 5% growth control rate),4 (Level 4: above 50% growth control rate),10,10,0,1 (Level 1: below 5% growth control rate),10,10,10,10
CCc1nn(C)c(OC(=O)c2cn(C)nc2C)c1C(=O)c1ccc(C(F)(F)F)c(-n2cc(C)cn2)c1Cl [Compound 141],1 (Level 1: below 5% growth control rate),0,7 (Level 7: above 80% growth control rate),9 (Level 9: above 95% growth control rate),7 (Level 7: above 80% growth control rate),3 (Level 3: above 20% growth control rate),10,9 (Level 9: above 95% growth control rate),1 (Level 1: below 5% growth control rate),10,10,10,10,10
CCc1nn(C)c(O)c1C(=O)c1ccc(C(F)(F)F)c(N2CCCCCC2=O)c1Cl [Compound 120],1 (Level 1: below 5% growth control rate),1 (Level 1: below 5% growth control rate),7 (Level 7: above 80% growth control rate),10,4 (Level 4: above 50% growth control rate),1 (Level 1: below 5% growth control rate),10,4 (Level 4: above 50% growth control rate),1 (Level 1: below 5% growth control rate),5 (Level 5: above 60% growth control rate),10,10,10,10
CCn1nc(C)c(C(=O)c2ccc(C(F)(F)F)c(N3CCCCCC3=O)c2Cl)c1OC(=O)c1cn(C)nc1C [Compound 119],1 (Level 1: below 5% growth control rate),3 (Level 3: above 20% growth control rate),9 (Level 9: above 95% growth control rate),10,5 (Level 5: above 60% growth control rate),5 (Level 5: above 60% growth control rate),10,3 (Level 3: above 20% growth control rate),1 (Level 1: below 5% growth control rate),6 (Level 6: above 70% growth control rate),10,10,10,10
